Assay: xn = mol fraction of the nth substance listed

CCCC(C)O (stereo not drawn) + CCCCOC(C)=O
viscosity [mPa·s], 100 kPa
Settings	x2 = 0.0809	x2 = 0.1601	x2 = 0.2399	x2 = 0.3501	x2 = 0.44	x2 = 0.56	x2 = 0.65	x2 = 0.7398	x2 = 0.85	x2 = 0.9399
293.15 K	2.506	1.64	1.205	0.917	0.797	0.724	0.703	0.685	0.684	0.7
298.15 K	2.253	1.525	1.121	0.853	0.744	0.668	0.656	0.644	0.644	0.656
303.15 K	2.018	1.419	1.05	0.805	0.688	0.62	0.605	0.6	0.599	0.618
308.15 K	1.688	1.227	0.926	0.704	0.616	0.56	0.546	0.537	0.548	0.566
313.15 K	1.407	1.016	0.775	0.619	0.548	0.504	0.488	0.48	0.496	0.52
318.15 K	1.139	0.816	0.614	0.497	0.455	0.424	0.416	0.421	0.448	0.476
323.15 K	0.874	0.6	0.438	0.365	0.343	0.338	0.341	0.358	0.391	0.432

CCCC(=O)O + Cc1ccccc1N
viscosity [mPa·s], 100 kPa
Settings	x2 = 0.0971	x2 = 0.1896	x2 = 0.2605	x2 = 0.3617	x2 = 0.4825	x2 = 0.5911	x2 = 0.6776	x2 = 0.7516	x2 = 0.8641
303.15 K	1.59	1.78	1.92	2.12	2.35	2.55	2.71	2.84	3.03
308.15 K	1.42	1.58	1.7	1.87	2.07	2.24	2.37	2.48	2.64
313.15 K	1.26	1.4	1.51	1.66	1.83	1.98	2.1	2.19	2.33
318.15 K	1.1	1.23	1.32	1.45	1.6	1.73	1.83	1.91	2.02

COCCO + CCOC(=O)OCC
298.15 K, 101.33 kPa
Settings	viscosity [mPa·s]
x1 = 0.0272	0.752
x1 = 0.0413	0.754
x1 = 0.0549	0.755
x1 = 0.0747	0.755
x1 = 0.0907	0.759
x1 = 0.1297	0.765
x1 = 0.1593	0.772
x1 = 0.224	0.791
x1 = 0.2925	0.814
x1 = 0.3392	0.835
x1 = 0.4073	0.866
x1 = 0.4273	0.877
x1 = 0.456	0.892
x1 = 0.4715	0.902
x1 = 0.5283	0.939
x1 = 0.5966	0.99
x1 = 0.6278	1.015
x1 = 0.6808	1.062
x1 = 0.7227	1.106
x1 = 0.7552	1.142
x1 = 0.8011	1.197
x1 = 0.8428	1.253
x1 = 0.8647	1.285
x1 = 0.8826	1.313
x1 = 0.9127	1.359
x1 = 0.9464	1.418
x1 = 0.9674	1.455
x2 = 0.0047	1.512
x2 = 0.0149	1.491

CCCC[N+](C)(CCCC)CCCC.N#C[N-]C#N + CC[n+]1ccn(C)c1.N#C[N-]C#N
Settings	viscosity [mPa·s]
323.15 K, 101 kPa, x2 = 0.2114	42.05

CCCCNCCCC + CCCCO
Settings	viscosity [mPa·s]
298.15 K, 101.33 kPa, x1 = 0.0635	2.402
298.15 K, 101.33 kPa, x1 = 0.1073	2.317
298.15 K, 101.33 kPa, x1 = 0.1494	2.223
298.15 K, 101.33 kPa, x1 = 0.2108	2.071
298.15 K, 101.33 kPa, x1 = 0.2648	1.932
298.15 K, 101.33 kPa, x1 = 0.3259	1.78
298.15 K, 101.33 kPa, x1 = 0.3973	1.606
298.15 K, 101.33 kPa, x1 = 0.4697	1.447
298.15 K, 101.33 kPa, x1 = 0.5484	1.303
298.15 K, 101.33 kPa, x1 = 0.6286	1.172
298.15 K, 101.33 kPa, x1 = 0.7575	1.015
298.15 K, 101.33 kPa, x1 = 0.8182	0.962
298.15 K, 101.33 kPa, x1 = 0.8572	0.927
298.15 K, 101.33 kPa, x1 = 0.8972	0.888
298.15 K, 101.33 kPa, x1 = 0.923	0.883
303.15 K, 101 kPa, x1 = 0.01155	2.23
303.15 K, 101 kPa, x1 = 0.01803	2.213
303.15 K, 101 kPa, x1 = 0.02448	2.198
303.15 K, 101 kPa, x1 = 0.03423	2.177
303.15 K, 101 kPa, x1 = 0.04155	2.163
303.15 K, 101 kPa, x1 = 0.04858	2.15
303.15 K, 101 kPa, x1 = 0.05659	2.134
303.15 K, 101 kPa, x1 = 0.06332	2.12
303.15 K, 101 kPa, x1 = 0.1014	2.031
303.15 K, 101.33 kPa, x1 = 0.0951	2.122
303.15 K, 101.33 kPa, x1 = 0.1888	1.923
303.15 K, 101.33 kPa, x1 = 0.2886	1.712
303.15 K, 101.33 kPa, x1 = 0.3967	1.507
303.15 K, 101.33 kPa, x1 = 0.4924	1.34
303.15 K, 101.33 kPa, x1 = 0.5903	1.201
303.15 K, 101.33 kPa, x1 = 0.6884	1.078
303.15 K, 101.33 kPa, x1 = 0.7951	0.96
303.15 K, 101.33 kPa, x1 = 0.8941	0.8638
308.15 K, 101.33 kPa, x1 = 0.0635	1.828
308.15 K, 101.33 kPa, x1 = 0.1073	1.767
308.15 K, 101.33 kPa, x1 = 0.1494	1.698
308.15 K, 101.33 kPa, x1 = 0.2108	1.588
308.15 K, 101.33 kPa, x1 = 0.2648	1.485
308.15 K, 101.33 kPa, x1 = 0.3259	1.377
308.15 K, 101.33 kPa, x1 = 0.3973	1.255
308.15 K, 101.33 kPa, x1 = 0.4697	1.145
308.15 K, 101.33 kPa, x1 = 0.5484	1.042
308.15 K, 101.33 kPa, x1 = 0.6286	0.952
308.15 K, 101.33 kPa, x1 = 0.7575	0.841
308.15 K, 101.33 kPa, x1 = 0.8182	0.801
308.15 K, 101.33 kPa, x1 = 0.8572	0.776
308.15 K, 101.33 kPa, x1 = 0.8972	0.753
308.15 K, 101.33 kPa, x1 = 0.923	0.739
313.15 K, 101.33 kPa, x1 = 0.0951	1.68
313.15 K, 101.33 kPa, x1 = 0.1888	1.532
313.15 K, 101.33 kPa, x1 = 0.2886	1.38
313.15 K, 101.33 kPa, x1 = 0.3967	1.225
313.15 K, 101.33 kPa, x1 = 0.4924	1.106
313.15 K, 101.33 kPa, x1 = 0.5903	0.9976
313.15 K, 101.33 kPa, x1 = 0.6884	0.9063
313.15 K, 101.33 kPa, x1 = 0.7951	0.8105
313.15 K, 101.33 kPa, x1 = 0.8941	0.7369
318.15 K, 101.33 kPa, x1 = 0.0635	1.441
318.15 K, 101.33 kPa, x1 = 0.1073	1.395
318.15 K, 101.33 kPa, x1 = 0.1494	1.344
318.15 K, 101.33 kPa, x1 = 0.2108	1.263
318.15 K, 101.33 kPa, x1 = 0.2648	1.188
318.15 K, 101.33 kPa, x1 = 0.3259	1.108
318.15 K, 101.33 kPa, x1 = 0.3973	1.018
318.15 K, 101.33 kPa, x1 = 0.4697	0.938
318.15 K, 101.33 kPa, x1 = 0.5484	0.864
318.15 K, 101.33 kPa, x1 = 0.6286	0.798
318.15 K, 101.33 kPa, x1 = 0.7575	0.717
318.15 K, 101.33 kPa, x1 = 0.8182	0.687
318.15 K, 101.33 kPa, x1 = 0.8572	0.669
318.15 K, 101.33 kPa, x1 = 0.8972	0.65
318.15 K, 101.33 kPa, x1 = 0.923	0.642
